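A five-concentration, 48-hour dose response in 96-well plates underlies each endpoint, interpolated linearly between surrounding concentrations. Here, GI50 denotes the concentration required for 50% inhibition of growth. TGI marks complete inhibition of growth.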
Assays:
Test in all cases: NCI anticancer screen, dose series, 48 h
[1] = tested on: HS 578T breast
[2] = tested on: DU-145 prostate
[3] = tested on: SW-620 colon
[4] = tested on: PC-3 prostate
[5] = tested on: SF-295 CNS
[6] = tested on: MALME-3M melanoma
[7] = tested on: MDA-MB-231 breast
[8] = tested on: A498 renal
[9] = tested on: RPMI-8226 leukemia
[10] = tested on: NCI-H460 lung
[11] = tested on: MCF7 breast
[12] = tested on: TK-10 renal
[13] = tested on: U251 CNS
[14] = tested on: HCT-116 colon
[15] = tested on: LOX IMVI melanoma
[16] = tested on: COLO 205 colon
[17] = tested on: T-47D breast
[18] = tested on: MDA-MB-435
[19] = tested on: SF-539 CNS
[20] = tested on: CCRF-CEM leukemia
[21] = tested on: SN12C renal
[22] = tested on: NCI-H23 lung
[23] = tested on: NCI/ADR-RES ovarian
[24] = tested on: ACHN renal
[25] = tested on: SNB-19 CNS
[26] = tested on: OVCAR-4 ovarian
[27] = tested on: NCI-H522 lung
[28] = tested on: UACC-62 melanoma
[29] = tested on: KM12 colon
[30] = tested on: RXF 393 renal
[31] = tested on: OVCAR-5 ovarian
[32] = tested on: HCT-15 colon
[33] = tested on: SF-268 CNS
[34] = tested on: SK-MEL-2 melanoma
[35] = tested on: M14 melanoma
[36] = tested on: MDA-MB-468 breast
[37] = tested on: HOP-92 NSCLC
[38] = tested on: BT-549 breast
[39] = tested on: OVCAR-3 ovarian
[40] = tested on: A549 NSCLC
[41] = tested on: SNB-75 CNS
[42] = tested on: HL-60(TB) leukemia
[43] = tested on: UACC-257 melanoma
[44] = tested on: HOP-62 NSCLC
[45] = tested on: K-562 leukemia
[46] = tested on: IGROV1 ovarian
[47] = tested on: SK-MEL-5 melanoma
[48] = tested on: EKVX NSCLC
[49] = tested on: HCC-2998 colon
[50] = tested on: NCI-H226 lung
[51] = tested on: SK-OV-3 ovarian
[52] = tested on: OVCAR-8 ovarian
[53] = tested on: 786-0 renal

Q: Which GI50 [1] does the source give for `ClC(Cn1ncc2c(Nc3cccc(Br)c3)nc(SCCN3CCOCC3)nc21)c1ccc(Br)cc1` (stereo unspecified) here?
A: The GI50 was 2.44 µM.

Q: What about the TGI [1] of the same compound?
A: The TGI was 7.88 µM.

Q: What about the GI50 [2] of the same compound?
A: The GI50 was 15.1 µM.

Q: What about the TGI [2] of the same compound?
A: Its TGI is > 100 µM.

Q: And the GI50 [3]?
A: Its GI50 is 2.76 µM.

Q: And the TGI [3]?
A: The TGI was 12.6 µM.

Q: What about the GI50 [4] of the same compound?
A: Its GI50 is 3.77 µM.

Q: What about the TGI [4] of the same compound?
A: Its TGI is > 100 µM.

Q: What about the GI50 [5] of the same compound?
A: Its GI50 is 1.78 µM.

Q: And the TGI [5]?
A: Its TGI is 3.57 µM.

Q: What about the GI50 [6] of the same compound?
A: The GI50 was 1.81 µM.

Q: What about the TGI [6] of the same compound?
A: Its TGI is 3.53 µM.

Q: And the GI50 [7]?
A: The GI50 was 2.25 µM.

Q: And the TGI [7]?
A: Its TGI is 4.66 µM.

Q: And the GI50 [8]?
A: Its GI50 is 6.37 µM.

Q: What about the TGI [8] of the same compound?
A: Its TGI is 35.2 µM.

Q: What about the GI50 [9] of the same compound?
A: The GI50 was 2.03 µM.

Q: What about the TGI [9] of the same compound?
A: Its TGI is 4.59 µM.

Q: And the GI50 [10]?
A: Its GI50 is 3.55 µM.

Q: And the TGI [10]?
A: Its TGI is > 100 µM.

Q: And the GI50 [11]?
A: The GI50 was 2.77 µM.

Q: What about the TGI [11] of the same compound?
A: The TGI was 24.6 µM.

Q: What about the GI50 [12] of the same compound?
A: Its GI50 is 13.6 µM.

Q: What about the TGI [12] of the same compound?
A: Its TGI is > 100 µM.

Q: What about the GI50 [13] of the same compound?
A: Its GI50 is 3.34 µM.

Q: And the TGI [13]?
A: The TGI was 41.3 µM.

Q: What about the GI50 [14] of the same compound?
A: The GI50 was 3.09 µM.

Q: What about the TGI [14] of the same compound?
A: The TGI was > 100 µM.

Q: And the GI50 [15]?
A: Its GI50 is 1.74 µM.

Q: And the TGI [15]?
A: Its TGI is 3.24 µM.

Q: And the GI50 [16]?
A: The GI50 was 1.98 µM.

Q: And the TGI [16]?
A: Its TGI is 4.48 µM.

Q: What about the GI50 [17] of the same compound?
A: The GI50 was 3.47 µM.

Q: And the TGI [17]?
A: The TGI was > 100 µM.

Q: And the GI50 [18]?
A: Its GI50 is 3.89 µM.

Q: What about the TGI [18] of the same compound?
A: The TGI was 21.5 µM.

Q: What about the GI50 [19] of the same compound?
A: Its GI50 is 1.79 µM.

Q: What about the TGI [19] of the same compound?
A: The TGI was 3.48 µM.

Q: And the GI50 [20]?
A: The GI50 was 2.17 µM.

Q: What about the TGI [20] of the same compound?
A: The TGI was 10.1 µM.

Q: And the GI50 [21]?
A: The GI50 was 6.47 µM.

Q: What about the TGI [21] of the same compound?
A: The TGI was > 100 µM.

Q: What about the GI50 [22] of the same compound?
A: Its GI50 is 3.46 µM.

Q: What about the TGI [22] of the same compound?
A: The TGI was 18.6 µM.

Q: What about the GI50 [23] of the same compound?
A: Its GI50 is 3.89 µM.

Q: What about the TGI [23] of the same compound?
A: The TGI was 97.5 µM.

Q: What about the GI50 [24] of the same compound?
A: The GI50 was 4.38 µM.

Q: And the TGI [24]?
A: The TGI was > 100 µM.

Q: What about the GI50 [25] of the same compound?
A: The GI50 was 5.14 µM.

Q: What about the TGI [25] of the same compound?
A: Its TGI is > 100 µM.

Q: And the GI50 [26]?
A: The GI50 was 6.42 µM.

Q: And the TGI [26]?
A: The TGI was > 100 µM.

Q: What about the GI50 [27] of the same compound?
A: The GI50 was 2.87 µM.

Q: And the TGI [27]?
A: The TGI was 9.33 µM.

Q: And the GI50 [28]?
A: The GI50 was 2.23 µM.

Q: What about the TGI [28] of the same compound?
A: The TGI was 4.75 µM.

Q: What about the GI50 [29] of the same compound?
A: The GI50 was 2.72 µM.

Q: What about the TGI [29] of the same compound?
A: Its TGI is 7.36 µM.

Q: What about the GI50 [30] of the same compound?
A: The GI50 was 1.69 µM.

Q: And the TGI [30]?
A: The TGI was 4.49 µM.

Q: And the GI50 [31]?
A: Its GI50 is 5.24 µM.

Q: And the TGI [31]?
A: Its TGI is 30.3 µM.

Q: What about the GI50 [32] of the same compound?
A: The GI50 was 1.65 µM.

Q: What about the TGI [32] of the same compound?
A: The TGI was 3.8 µM.

Q: And the GI50 [33]?
A: The GI50 was 6.94 µM.

Q: And the TGI [33]?
A: Its TGI is > 100 µM.

Q: And the GI50 [34]?
A: The GI50 was 4.62 µM.

Q: What about the TGI [34] of the same compound?
A: The TGI was 24.5 µM.

Q: And the GI50 [35]?
A: The GI50 was 2.5 µM.

Q: And the TGI [35]?
A: Its TGI is 8.72 µM.

Q: What about the GI50 [36] of the same compound?
A: Its GI50 is 2.52 µM.

Q: What about the TGI [36] of the same compound?
A: Its TGI is 6.89 µM.

Q: What about the GI50 [37] of the same compound?
A: Its GI50 is 3.5 µM.

Q: And the TGI [37]?
A: Its TGI is 23.9 µM.

Q: And the GI50 [38]?
A: Its GI50 is 11.7 µM.

Q: What about the TGI [38] of the same compound?
A: Its TGI is 27.9 µM.

Q: And the GI50 [39]?
A: The GI50 was 10.3 µM.

Q: And the TGI [39]?
A: The TGI was 60 µM.

Q: And the GI50 [40]?
A: The GI50 was 4.93 µM.

Q: And the TGI [40]?
A: Its TGI is > 100 µM.

Q: What about the GI50 [41] of the same compound?
A: Its GI50 is 2.57 µM.

Q: What about the TGI [41] of the same compound?
A: The TGI was 24.3 µM.

Q: And the GI50 [42]?
A: Its GI50 is 3.03 µM.

Q: And the TGI [42]?
A: Its TGI is > 100 µM.

Q: And the GI50 [43]?
A: The GI50 was 2.82 µM.

Q: What about the TGI [43] of the same compound?
A: The TGI was 9.84 µM.

Q: And the GI50 [44]?
A: The GI50 was 3.71 µM.

Q: What about the TGI [44] of the same compound?
A: Its TGI is 22.4 µM.

Q: What about the GI50 [45] of the same compound?
A: Its GI50 is 2.84 µM.

Q: And the TGI [45]?
A: Its TGI is 26.2 µM.

Q: And the GI50 [46]?
A: The GI50 was 8 µM.

Q: And the TGI [46]?
A: Its TGI is > 100 µM.

Q: What about the GI50 [47] of the same compound?
A: Its GI50 is 2.07 µM.

Q: What about the TGI [47] of the same compound?
A: Its TGI is 4.47 µM.

Q: And the GI50 [48]?
A: Its GI50 is 5.01 µM.

Q: What about the TGI [48] of the same compound?
A: The TGI was > 100 µM.

Q: What about the GI50 [49] of the same compound?
A: Its GI50 is 3.8 µM.

Q: And the TGI [49]?
A: The TGI was 60 µM.

Q: What about the GI50 [50] of the same compound?
A: The GI50 was 9.32 µM.

Q: What about the TGI [50] of the same compound?
A: Its TGI is 71.6 µM.

Q: What about the GI50 [51] of the same compound?
A: The GI50 was 6.46 µM.

Q: What about the TGI [51] of the same compound?
A: Its TGI is > 100 µM.

Q: What about the GI50 [52] of the same compound?
A: The GI50 was 6.5 µM.

Q: And the TGI [52]?
A: The TGI was > 100 µM.

Q: What about the GI50 [53] of the same compound?
A: The GI50 was 1.76 µM.

Q: What about the TGI [53] of the same compound?
A: Its TGI is 3.35 µM.

From PubChem BioAssay (NCI)
